How the values were obtained:
[1] = test system: Plasmopara viticola; assay: Antisporulant activity against vine downy mildew (PVA); assay type: in vivo; conditions: vine leaves, antisporulant foliar spray, 600 ppm, 750 l/ha
In short: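 Cabernet Sauvignon vines (~8 cm) inoculated on lower leaf surfaces with 5×10^4 zoosporangia/ml, held 24 h at 21° C high humidity then 24 h glasshouse. Infected leaves sprayed underside with 600 ppm compound in 1:1 water/acetone, 0.04% Tween 20, 750 l/ha; 96 h glasshouse, 24 h humidity. Sporulating leaf area rated versus control.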

[2] = test system: Alternaria solani; assay: Activity against tomato early blight (AS); assay type: in vivo; conditions: Table VI; tomato seedlings, contact prophylactic foliar spray, 4 days
In short: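 Foliar contact prophylactic spray on tomato seedlings (cv Outdoor Girl, second true leaf expanded) in acetone/water 50:50 with 0.04% Tween 20; 24 h at 20° C, 40% R.H., then inoculation with 10^4 spores/ml A. solani conidia. Kept moist at 21° C; lesion cover rated 4 days post-inoculation against untreated or diluent-sprayed controls.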

[3] = test system: Botrytis cinerea; assay: Direct protectant activity against broad bean grey mould (BCB); assay type: in vivo; conditions: direct protectant foliar spray, 600 ppm, 4 days
In short: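 Broad bean plants (cv The Sutton, two leaf pairs) sprayed on upper leaf surfaces at 600 ppm, then inoculated 24 h later with 10^6 conidia/ml. Kept 4 days at 22 °C, high humidity; disease control rated from % leaf area with lesions against untreated or diluent controls.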

[4] = test system: Leptosphaeria nodorum; assay: Activity against wheat leafspot (LN); assay type: in vivo; conditions: direct therapeutic foliar spray, 600 ppm, 6-8 days
In short: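 Wheat cv Norman at single-leaf stage spray-inoculated with 1.5×10^6 conidia/ml, held 24 h at high humidity, then sprayed therapeutically with test compound at 600 ppm. Kept 6-8 days at 22° C, 70% humidity; lesion density per leaf rated against untreated or diluent-sprayed controls.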

[5] = test system: Erysiphe graminis f.sp. hordei; assay: Activity against barley powdery mildew, direct therapeutic (EGT); assay type: in vivo; conditions: direct therapeutic foliar spray, 600 ppm, up to 7 days
In short: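 Barley seedlings (cv. Golden Promise, single-leaf stage) were dusted with mildew conidia one day before a therapeutic foliar spray of 600 ppm compound. Plants were kept at 18 °C and 40% humidity for up to 7 days, and sporulating leaf area was rated against untreated or diluent-sprayed controls.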

[6] = test system: Erysiphe graminis f.sp. hordei; assay: Direct protectant activity against barley powdery mildew (EGP); assay type: in vivo; conditions: direct protectant foliar spray, 8 days
In short: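 Barley seedlings (cv Golden Promise, single-leaf stage) were foliar-sprayed, held 24 h at 18 °C/40% RH, then dusted with mildew conidia. After 8 days at 18 °C/40% RH, sporulating leaf area was scored as a rating against untreated or diluent-sprayed controls.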

[7] = test system: Phytophthora infestans; assay type: in vivo; conditions: tomato, direct protectant foliar spray
[8] = test system: Pseudocercosporella herpotrichoides; assay: Activity against wheat eyespot in-vitro (PHI); assay type: cell-based; conditions: 10 ppm, 10 days, 20° C., mycelial growth
In short: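 P. herpotrichoides mycelial fragments (5×10^4/ml) grown in half-strength PDB with compound at 10 ppm final, added from acetone. Incubated 10 days at 20 °C; mycelial growth rated against untreated or diluent controls.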

[9] = test system: Rhizoctonia solani; assay: Activity against Rhizoctonia in-vitro (RSI); assay type: cell-based; conditions: 10 ppm, 10 days, 20° C., mycelial growth
In short: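 R. solani mycelial fragments (5×10^4/ml) in half-strength Potato Dextrose Broth with compound added from acetone to 10 ppm final. Mycelial growth assessed after 10 days at 20° C, rated against untreated or diluent control.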

[10] = test system: Venturia inaequalis; assay: Activity against apple scab in-vitro (VII); assay type: cell-based; conditions: 10 ppm, 10 days, 20° C., mycelial growth
In short: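 Compound in acetone was tested at 10 ppm final in half-strength Potato Dextrose Broth inoculated with V. inaequalis mycelial fragments and spores at 5×10^4 propagules/ml. After 10 days at 20° C, mycelial growth was rated against untreated or diluent controls.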

[11] = test system: Pyricularia oryzae; assay type: in vivo; conditions: rice seedlings, direct therapeutic foliar spray, 600 ppm, 4-5 days

Row | Compound | disease control rating PVA [1] | disease control rating AS [2] | disease control rating BCB [3] | disease control rating LN [4] | disease control rating EGT [5] | disease control rating EGP [6] | disease control rating PIP [7] | disease control rating PHI [8] | disease control rating RSI [9] | disease control rating VII [10] | disease control rating PO [11]
1 | CCCN(C1COC2(CCC(C(C)(C)C)CC2)C1)C1CC2CCC1C2 (centres unmarked) [Compound 130] | 0 (less than 50% disease control) | 0 (less than 50% disease control) | 0 (less than 50% disease control) | 0 (less than 50% disease control) | 2 (greater than 80% disease control) | 2 (greater than 80% disease control) | 2 (greater than 80% disease control) | 0 (less than 50% disease control) | 0 (less than 50% disease control) | 1 (about 50-80% disease control) | 0 (less than 50% disease control)
2 | CN(CC(C)(C)C)C1COC2(CCC(C(C)(C)C)CC2)C1 (centres unmarked) [Compound 131] | 0 (less than 50% disease control) | 0 (less than 50% disease control) | 0 (less than 50% disease control) | 0 (less than 50% disease control) | 2 (greater than 80% disease control) | 2 (greater than 80% disease control) | 0 (less than 50% disease control) | 0 (less than 50% disease control) | 0 (less than 50% disease control) | 1 (about 50-80% disease control) | 0 (less than 50% disease control)
3 | CCN(CC(C)(C)C)C1COC2(CCC(C(C)(C)C)CC2)C1 (centres unmarked) [Compound 132] | 0 (less than 50% disease control) | 0 (less than 50% disease control) | 0 (less than 50% disease control) | 0 (less than 50% disease control) | 2 (greater than 80% disease control) | 2 (greater than 80% disease control) | 0 (less than 50% disease control) | 0 (less than 50% disease control) | 0 (less than 50% disease control) | 1 (about 50-80% disease control) | 0 (less than 50% disease control)
4 | CCCN(CC(C)(C)C)C1COC2(CCC(C(C)(C)C)CC2)C1 (centres unmarked) [Compound 133] | 0 (less than 50% disease control) | 0 (less than 50% disease control) | 0 (less than 50% disease control) | 0 (less than 50% disease control) | 2 (greater than 80% disease control) | 2 (greater than 80% disease control) | 0 (less than 50% disease control) | 0 (less than 50% disease control) | 0 (less than 50% disease control) | 1 (about 50-80% disease control) | 0 (less than 50% disease control)
5 | CC(C)(C)CNC1COC2(CCC(C(C)(C)C)CC2)C1 (centres unmarked) [Compound 134] | 0 (less than 50% disease control) | 0 (less than 50% disease control) | 0 (less than 50% disease control) | 0 (less than 50% disease control) | 2 (greater than 80% disease control) | 2 (greater than 80% disease control) | 0 (less than 50% disease control) | 0 (less than 50% disease control) | 0 (less than 50% disease control) | 0 (less than 50% disease control) | 0 (less than 50% disease control)
6 | CC(C)CNC1COC2(CCC(C(C)(C)CC(C)(C)C)CC2)C1 (centres unmarked) [Compound 137] | 0 (less than 50% disease control) | 0 (less than 50% disease control) | 0 (less than 50% disease control) | 2 (greater than 80% disease control) | 2 (greater than 80% disease control) | 2 (greater than 80% disease control) | 0 (less than 50% disease control) | 2 (greater than 80% disease control) | 2 (greater than 80% disease control) | 1 (about 50-80% disease control) | 0 (less than 50% disease control)
7 | CC(C)(C)C1CCC2(CC1)CC(NC1CCC3CCCCC3C1)CO2 (centres unmarked) [Compound 138] | 0 (less than 50% disease control) | 0 (less than 50% disease control) | 0 (less than 50% disease control) | 0 (less than 50% disease control) | 0 (less than 50% disease control) | 0 (less than 50% disease control) | 2 (greater than 80% disease control) | 0 (less than 50% disease control) | 0 (less than 50% disease control) | 0 (less than 50% disease control) | 0 (less than 50% disease control)
8 | CC(C)CNC1COC2(CCC(C(C)(C)C3CCCCC3)CC2)C1 (centres unmarked) [Compound 139] | 0 (less than 50% disease control) | 0 (less than 50% disease control) | 0 (less than 50% disease control) | 1 (about 50-80% disease control) | 2 (greater than 80% disease control) | 2 (greater than 80% disease control) | 0 (less than 50% disease control) | 2 (greater than 80% disease control) | 0 (less than 50% disease control) | 2 (greater than 80% disease control) | 0 (less than 50% disease control)
9 | CCCCCCN(C)C1COC2(CCC(C(C)(C)C3CCCCC3)CC2)C1 (centres unmarked) [Compound 140] | 0 (less than 50% disease control) | 0 (less than 50% disease control) | 0 (less than 50% disease control) | 1 (about 50-80% disease control) | 2 (greater than 80% disease control) | 2 (greater than 80% disease control) | 0 (less than 50% disease control) | 2 (greater than 80% disease control) | 2 (greater than 80% disease control) | 2 (greater than 80% disease control) | 0 (less than 50% disease control)
10 | CC1CCN(C2COC3(CCC(C(C)(C)C4CCCCC4)CC3)C2)CC1 (centres unmarked) [Compound 141] | 0 (less than 50% disease control) | 0 (less than 50% disease control) | 0 (less than 50% disease control) | 1 (about 50-80% disease control) | 2 (greater than 80% disease control) | 2 (greater than 80% disease control) | 0 (less than 50% disease control) | 2 (greater than 80% disease control) | 2 (greater than 80% disease control) | 2 (greater than 80% disease control) | 0 (less than 50% disease control)

Source: US5591741A, “Fungicidal spiroheterocyclic derivatives” (American Cyanamid Company, priority 1993, dated 1997)
